21 compounds from PubChem BioAssay AID192 (DTP/NCI, 2004) can be followed below.

Several values for one entry are separate records, joined by “and”; a condition that tells them apart may be missing. Equal entries are not always repeated. Inconclusive results and toxic doses are left out.

The test system of this test is BDF1 mice, B16 melanoma ip, median survival T/C. Nature of the test: NCI In Vivo Anticancer Drug Screen. Data for tumor model B16 Melanoma (intraperitoneal) in B6D2F1 (BDF1) mice. Conditions: endpoint: median survival time, higher = longer survival. Put shortly:
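Read-out: survival or tumor size, given as treated/control ratio. Controls received vehicle only; animals bore transplantable tumors.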

Setting [1] is: dose: 25.0 mg/kg/injection, schedule: Q01DX009 (ip), vehicle: saline with Tween-80.
The mark [2] stands for this setting: dose: 100.0 mg/kg/injection, schedule: Q04DX003 (ip), vehicle: saline with Tween-80.
The mark [3] stands for this setting: dose: 200.0 mg/kg/injection, schedule: Q04DX003 (ip), vehicle: saline with Tween-80.
[4] abbreviates: dose: 400.0 mg/kg/injection, schedule: Q04DX003 (ip), vehicle: saline with Tween-80.
[5] abbreviates: dose: 100.0 mg/kg/injection, schedule: Q01DX009 (ip), vehicle: Klucel (hydroxypropylcellulose) (HPC).
The mark [6] stands for this setting: dose: 200.0 mg/kg/injection, schedule: Q01DX009 (ip), vehicle: Klucel (hydroxypropylcellulose) (HPC).
[7] abbreviates: dose: 400.0 mg/kg/injection, schedule: Q01DX009 (ip), vehicle: Klucel (hydroxypropylcellulose) (HPC).
Setting [8] is: dose: 100.0 mg/kg/injection, schedule: Q01DX009 (ip), vehicle: saline with Tween-80.
The mark [9] stands for this setting: dose: 200.0 mg/kg/injection, schedule: Q01DX009 (ip), vehicle: saline with Tween-80.
Where [10] appears, read: dose: 400.0 mg/kg/injection, schedule: Q01DX009 (ip), vehicle: saline with Tween-80.
Where [11] appears, read: dose: 25.0 mg/kg/injection, schedule: Q01DX009 (ip), vehicle: Klucel (hydroxypropylcellulose) (HPC).
Setting [12] is: dose: 50.0 mg/kg/injection, schedule: Q01DX009 (ip), vehicle: Klucel (hydroxypropylcellulose) (HPC).
Where [13] appears, read: dose: 6.25 mg/kg/injection, schedule: Q01DX009 (ip), vehicle: Klucel (hydroxypropylcellulose) (HPC).
Where [14] appears, read: dose: 12.5 mg/kg/injection, schedule: Q01DX009 (ip), vehicle: Klucel (hydroxypropylcellulose) (HPC).

With `Oc1ccc(C2(c3ccc(O)cc3)CCCCC2)cc1`, the T/C (dose: 50.0 mg/kg/injection, schedule: Q01DX009 (ip), vehicle: acetone) was 97 % of control.
As to `CCCCCCCCSCCO`, the T/C is 102 % of control (dose: 12.5 mg/kg/injection, schedule: Q01DX009 (ip), vehicle: saline with Tween-80) and 97 % of control under setting [1].
As for `O=C(OC1CC2CC=CC21)c1ccc([N+](=O)[O-])cc1` (stereo not drawn), the T/C was 100 % of control under setting [2], 94 % of control under setting [3] and 94 % of control under setting [4].
With `CCCCCCCCC(=O)CCCCCC`, the T/C under setting [5] is 100 % of control, the T/C under setting [6] is 96 % of control and the T/C under setting [7] was 104 % of control.
In the case of `COc1ccc2[nH]c3c(C)c4cc[n+](C)c(C)c4cc3c2c1`, the T/C (dose: 10.0 mg/kg/injection, schedule: Q04DX003 (ip), vehicle: water) was 113 % of control; the T/C (dose: 20.0 mg/kg/injection, schedule: Q04DX003 (ip), vehicle: water) is 98 % of control; the T/C (dose: 40.0 mg/kg/injection, schedule: Q04DX003 (ip), vehicle: water) is 105 % of control; the T/C (dose: 80.0 mg/kg/injection, schedule: Q04DX003 (ip), vehicle: water) is 117 % of control.
As to `Cc1cc2ncn(CO)c2cc1C`, the T/C is, setting by setting: under setting [8], 102 % of control; under setting [9], 97 % of control; under setting [10], 97 % of control.
On to `O=C1c2c(O)ccc(O)c2C(=O)c2c(NCCNCCO)ccc(NCCNCCO)c21`, for which the T/C is 110 % of control (dose: 0.13 mg/kg/injection, schedule: Q01DX009 (ip), vehicle: saline with Tween-80); 186 % of control and 188 % of control (dose: 0.25 mg/kg/injection, schedule: Q01DX009 (ip), vehicle: saline); 157 % of control and 160 % of control and 174 % of control (dose: 0.25 mg/kg/injection, schedule: Q01DX009 (ip), vehicle: water); 98 % of control (dose: 0.25 mg/kg/injection, schedule: Q01DX009 (oral), vehicle: acid diluted with saline); 218 % of control (dose: 0.5 mg/kg/injection, schedule: Q01DX009 (ip), vehicle: saline); 218 % of control and 225 % of control and 247 % of control (dose: 0.5 mg/kg/injection, schedule: Q01DX009 (ip), vehicle: water). Besides, the T/C is, setting by setting: (dose: 0.5 mg/kg/injection, schedule: Q01DX009 (oral), vehicle: acid diluted with saline) 104 % of control; (dose: 1.0 mg/kg/injection, schedule: Q01DX009 (ip), vehicle: saline with Tween-80) 152 % of control and 156 % of control; (dose: 1.0 mg/kg/injection, schedule: Q01DX009 (ip), vehicle: saline) 260 % of control and 267 % of control; (dose: 1.0 mg/kg/injection, schedule: Q01DX009 (ip), vehicle: water) 121 % of control and 202 % of control and 261 % of control; (dose: 1.25 mg/kg/injection, schedule: Q01DX001 (ip), vehicle: acid diluted with saline) 153 % of control; (dose: 2.0 mg/kg/injection, schedule: Q01DX001 (ip), vehicle: water) 212 % of control. In addition, the T/C reads like this: (dose: 2.0 mg/kg/injection, schedule: Q01DX009 (ip), vehicle: saline) 207 % of control and 251 % of control; (dose: 2.0 mg/kg/injection, schedule: Q01DX009 (ip), vehicle: water) 221 % of control; (dose: 2.5 mg/kg/injection, schedule: Q01DX001 (ip), vehicle: acid diluted with saline) 123 % of control and 205 % of control; (dose: 4.0 mg/kg/injection, schedule: Q01DX001 (ip), vehicle: water) 202 % of control; (dose: 8.0 mg/kg/injection, schedule: Q01DX001 (ip), vehicle: water) 303 % of control.
On to `CCOC1CCC2C(CCC(/C=C/c3ccc(O)c4ncccc34)N2C)C1` (stereo not drawn), for which the T/C under setting [1] is 111 % of control.
As for `O=C(O)CCC1CCCCC1=O` (stereo not drawn), the T/C reads like this: under setting [6], 120 % of control; under setting [7], 100 % of control.
Regarding `O=C1OC(COCC#Cc2ccccc2)CN1c1ccccc1` (stereo not drawn), the T/C is 97 % of control under setting [11]; 93 % of control under setting [12]; 102 % of control under setting [2]; 91 % of control under setting [6]; 105 % of control under setting [3]; 91 % of control under setting [7]. In addition, the T/C under setting [4] is 108 % of control.
Consider `CCN(CC)C(C(=O)Nc1ccccc1)C(=O)Nc1ccccc1`, for which the T/C is, setting by setting: under setting [8], 100 % of control; under setting [9], 90 % of control; under setting [10], 95 % of control.
Consider `N#CCCc1ccccc1`, for which the T/C by setting is: (dose: 3.13 mg/kg/injection, schedule: Q01DX009 (ip), vehicle: saline) 100 % of control; (dose: 6.25 mg/kg/injection, schedule: Q01DX009 (ip), vehicle: saline) 97 % of control; (dose: 12.5 mg/kg/injection, schedule: Q01DX009 (ip), vehicle: saline) 100 % of control.
As for `CC(C)(C)n1cc(C(=O)c2ccccc2)cc1-c1ccccc1`, the T/C under setting [2] is 97 % of control, the T/C under setting [3] was 100 % of control and the T/C under setting [4] is 100 % of control.
With `CCCCCCC(=O)CCCCCCCCCCCCC(=O)OC`, the T/C runs as follows: (dose: 1.56 mg/kg/injection, schedule: Q01DX009 (ip), vehicle: saline with Tween-80) 98 % of control; (dose: 3.13 mg/kg/injection, schedule: Q01DX009 (ip), vehicle: saline with Tween-80) 105 % of control; (dose: 6.25 mg/kg/injection, schedule: Q01DX009 (ip), vehicle: saline with Tween-80) 97 % of control.
Turning to `c1cc2c(c(NC3=NCCCS3)c1)CCCC2`, the T/C reads like this: under setting [12], 106 % of control; under setting [5], 96 % of control; under setting [6], 96 % of control.
As to `OCC(F)(F)C(F)(F)C(F)(F)F`, the T/C was 105 % of control (dose: 75.0 mg/kg/injection, schedule: Q01DX009 (ip), vehicle: saline); 106 % of control (dose: 150.0 mg/kg/injection, schedule: Q01DX009 (ip), vehicle: saline); 100 % of control (dose: 300.0 mg/kg/injection, schedule: Q01DX009 (ip), vehicle: saline).
In the case of `O=C1C(Cl)=C(c2ccccc2)C(=O)C(Cl)=C1c1ccccc1`, the T/C was 114 % of control under setting [13], 106 % of control under setting [14], 87 % of control under setting [11] and 94 % of control under setting [12].
Take `CC(Cc1ccc(O)c(O)c1)C(C)Cc1ccc(O)c(O)c1` (stereo not drawn): the T/C runs as follows: (dose: 750.0 mg/kg/injection, schedule: Q01DX009 (oral), vehicle: saline) 100 % of control; (dose: 1500.0 mg/kg/injection, schedule: Q01DX009 (oral), vehicle: saline) 97 % of control.
`COc1ccc(N2CSC(=S)N(c3ccc(OC)cc3)C2)cc1`: the T/C runs as follows: (dose: 8.0 mg/kg/injection, schedule: Q01DX009 (ip), vehicle: saline with Tween-80) 97 % of control; (dose: 12.0 mg/kg/injection, schedule: Q01DX009 (ip), vehicle: saline with Tween-80) 90 % of control; (dose: 18.0 mg/kg/injection, schedule: Q01DX009 (ip), vehicle: saline with Tween-80) 90 % of control; under setting [11], 102 % of control; under setting [1], 112 % of control; under setting [12], 94 % of control. Besides, the T/C runs as follows: (dose: 50.0 mg/kg/injection, schedule: Q01DX009 (ip), vehicle: saline with Tween-80) 115 % of control; under setting [5], 114 % of control.
In the case of `COc1cccc(OC)c1OC(=O)/C=C\C(=O)Oc1c(OC)cccc1OC`, the T/C is 100 % of control (dose: 75.0 mg/kg/injection, schedule: Q01DX009 (ip), vehicle: Klucel (hydroxypropylcellulose) (HPC)); 100 % of control (dose: 150.0 mg/kg/injection, schedule: Q01DX009 (ip), vehicle: Klucel (hydroxypropylcellulose) (HPC)); 100 % of control (dose: 300.0 mg/kg/injection, schedule: Q01DX009 (ip), vehicle: Klucel (hydroxypropylcellulose) (HPC)).
On to `S=c1[nH]c2ccccc2[nH]1`, for which the T/C was 91 % of control (dose: 1.56 mg/kg/injection, schedule: Q01DX009 (ip), vehicle: Klucel (hydroxypropylcellulose) (HPC)); 90 % of control (dose: 3.12 mg/kg/injection, schedule: Q01DX009 (ip), vehicle: Klucel (hydroxypropylcellulose) (HPC)); 95 % of control under setting [13]; 86 % of control under setting [14]; 100 % of control under setting [11].
